Data taken from paper PMC4160546, “Biotechnical paving of recombinant enterocin A as the candidate of anti-Listeria agent” (BMC Microbiology, 2014).
Values after ≈ are worked out from the molar mass of the structure shown.

Key:
[1] = cited from earlier work
Method: The native EntA was stable at 100°C and acidic pH conditions. […] These properties were potentially due to the higher cysteine content of the antimicrobial peptides, similar to the EntA containing four cysteine residues. In addition, the antimicrobial activity of some bacteriocins (nisin, sakacin P and curvacin A) was si ...

[2] = test system: digestive proteases trypsin and pepsin; details: cited from earlier work
Source text: Similarly, the purified rEntA, with 12.76% basic amino acids and 10.63% aromatic amino acids, was inactivated with trypsin and pepsin (Figure 4C). This high sensitivity to digestive proteases of rEntA contributes to its safety in foods and drugs, during and after oral administration.

L. ivanovii ATCC19119 [3] = assay: In-vitro killing curve (time-kill) assay; assay type: cell-based, Listeria ivanovii; details: 2 × MIC, 10 h time-kill
Method: To evaluate the antibacterial activity of rEntA against L. ivanovii ATCC19119, a time-kill assay was performed as described by the methods of Mao [32]. In addition, tubes with only bacterial inoculum were used as growth controls. All experiments were performed in triplicate.

L. ivanovii ATCC19119 [4] = assay: MIC and MBC, microtiter broth dilution method; assay type: cell-based; details: Listeria ivanovii, triplicate
Method: Minimal inhibitory concentrations (MICs) and Minimum bactericidal concentrations (MBCs) assays were determined using the microtiter broth dilution method. Ampicillin was also tested with the same concentration gradient as a positive control. All tests were performed in triplicate.

Molecule: pediocin PA-1: class IIa bacteriocin (KYYGNGVTCGKHSCSVDWGKATTCIINNGAMAWATGGHQGNHKC; UniProt P29430 19-62, looked up)
- bactericidal activity and overall structure at higher temperatures [1]: well maintained
- sensitivity to trypsin and pepsin [2]: very sensitive

Molecule: nisin: class I bacteriocin, widely used in commerce (ITSISLCTPGCKTGALMGCNMKTATCHCSIHVSK; not fully specified; Lantibiotic nisin-A; UniProt P13068 24-57, looked up)
- effect of NaCl on antimicrobial activity ([1]; addition of NaCl from 0 to 1.17 M): significantly enhanced

Molecule: CC1(C)S[C@@H]2[C@H](NC(=O)[C@H](N)c3ccccc3)C(=O)N2[C@H]1C(=O)O [ampicillin]
- growth of survivors after MVL (L. ivanovii ATCC19119 [3]): resumed growth
- MBC (L. ivanovii ATCC19119 [4]): 1.56 µg/mL (≈ 4.46 µM)
- MIC (L. ivanovii ATCC19119 [4]): 0.39 µg/mL (≈ 1.12 µM)
